Data taken from ChEMBL document CHEMBL3885881, “DrugMatrix”.

Organism: Rattus norvegicus
Assay: DrugMatrix - Regimen: Daily Repeat
Assay type: toxicity, organism-based, Sprague-Dawley
Design: regimen Daily Repeat, gender Male, age 6-8 weeks
Settings: in vivo, po, route oral GAVAGE, vehicle 100 % WATER; for ABSOLUTE BASOPHIL / ABSOLUTE EOSINOPHIL / ABSOLUTE LYMPHOCYTE / ABSOLUTE MONOCYTE / ABSOLUTE SEGMENTED NEUTROPHIL / BASOPHIL / EOSINOPHIL / ERYTHROCYTE COUNT / HEMATOCRIT / HEMOGLOBIN / LEUKOCYTE COUNT / LYMPHOCYTE / MEAN CORPUSCULAR HEMOGLOBIN / MEAN CORPUSCULAR HEMOGLOBIN CONCENTRATION / MEAN CORPUSCULAR VOLUME / MONOCYTE / NEUTROPHIL / NUCLEATED RED BLOOD CELLS / PLATELET COUNT: tissue Blood; for ALANINE AMINOTRANSFERASE / ALBUMIN / ALKALINE PHOSPHATASE / ASPARTATE AMINOTRANSFERASE / BLOOD UREA NITROGEN / CARBON DIOXIDE / CHLORIDE / CHOLESTEROL / CREATINE PHOSPHOKINASE / CREATININE / GLUCOSE / LACTATE DEHYDROGENASE / LIPASE / PHOSPHORUS / POTASSIUM / SODIUM / TOTAL BILIRUBIN / TOTAL PROTEIN / URIC ACID: tissue Plasma
[1] = 120 mg/kg, 72 h, dose level Low, time 3 day
[2] = 120 mg/kg, 120 h, dose level Low, time 5 day
[3] = 1200 mg/kg, 72 h, dose level High, time 3 day
[4] = 1200 mg/kg, 120 h, dose level High, time 5 day

For `O=C(O)CNCP(=O)(O)O` [GLYPHOSATE], the “ABSOLUTE BASOPHIL” value [1] was 0 CELLS/uL, the “ABSOLUTE EOSINOPHIL” value [1] was 153 CELLS/uL and the “ABSOLUTE LYMPHOCYTE” value [1] was 11957 CELLS/uL. For the same compound, the “ABSOLUTE MONOCYTE” value [1] was 0 CELLS/uL, the “ABSOLUTE SEGMENTED NEUTROPHIL” value [1] was 890 CELLS/uL and the BASOPHIL [1] was 0%. The EOSINOPHIL [1] was 1.33%, the “ERYTHROCYTE COUNT” value [1] was 5.56 x10E6/uL and the HEMATOCRIT [1] was 35.93%. For the same compound, the HEMOGLOBIN [1] was 13.4 G/DL, the “LEUKOCYTE COUNT” value [1] was 13 x10E3/uL and the LYMPHOCYTE [1] was 92%. For the same compound, the “MEAN CORPUSCULAR HEMOGLOBIN” value [1] was 24.1 pg, the “MEAN CORPUSCULAR HEMOGLOBIN CONCENTRATION” value [1] was 37.3 G/DL and the “MEAN CORPUSCULAR VOLUME” value [1] was 64.57 fL. The MONOCYTE [1] was 0%, the NEUTROPHIL [1] was 6.67% and the “NUCLEATED RED BLOOD CELLS” value [1] was 0 /100WBC. The “PLATELET COUNT” value [1] was 1067 x10E3/uL, the “ALANINE AMINOTRANSFERASE” value [1] was 56 u/L and the ALBUMIN [1] was 4.13 G/DL. For the same compound, the “ALKALINE PHOSPHATASE” value [1] was 286.67 u/L, the “ASPARTATE AMINOTRANSFERASE” value [1] was 100.67 u/L and the “BLOOD UREA NITROGEN” value [1] was 15 mg/dL. For the same compound, the “CARBON DIOXIDE” value [1] was 24.67 mmol/L, the CHLORIDE [1] was 103.33 MEQ/L and the CHOLESTEROL [1] was 75 mg/dL. The “CREATINE PHOSPHOKINASE” value [1] was 1135.33 u/L, the CREATININE [1] was 0.29 mg/dL and the GLUCOSE [1] was 198.67 mg/dL. For the same compound, the “LACTATE DEHYDROGENASE” value [1] was 150.67 u/L, the LIPASE [1] was 8 u/L and the PHOSPHORUS [1] was 14.7 mg/dL. The POTASSIUM [1] was 6.43 MEQ/L, the SODIUM [1] was 145.93 MEQ/L and the “TOTAL BILIRUBIN” value [1] was 0.27 mg/dL. For the same compound, the “TOTAL PROTEIN” value [1] was 5.87 G/DL, the “URIC ACID” value [1] was 1.73 mg/dL and the “ABSOLUTE BASOPHIL” value [2] was 0 CELLS/uL. For the same compound, the “ABSOLUTE EOSINOPHIL” value [2] was 327.33 CELLS/uL, the “ABSOLUTE LYMPHOCYTE” value [2] was 13510 CELLS/uL and the “ABSOLUTE MONOCYTE” value [2] was 0 CELLS/uL. For the same compound, the “ABSOLUTE SEGMENTED NEUTROPHIL” value [2] was 1496 CELLS/uL, the BASOPHIL [2] was 0% and the EOSINOPHIL [2] was 2%. The “ERYTHROCYTE COUNT” value [2] was 5.7 x10E6/uL, the HEMATOCRIT [2] was 34.73% and the HEMOGLOBIN [2] was 13.27 G/DL. The “LEUKOCYTE COUNT” value [2] was 15.33 x10E3/uL, the LYMPHOCYTE [2] was 88.33% and the “MEAN CORPUSCULAR HEMOGLOBIN” value [2] was 23.27 pg. For the same compound, the “MEAN CORPUSCULAR HEMOGLOBIN CONCENTRATION” value [2] was 38.23 G/DL, the “MEAN CORPUSCULAR VOLUME” value [2] was 60.93 fL and the MONOCYTE [2] was 0%. For the same compound, the NEUTROPHIL [2] was 9.67%, the “NUCLEATED RED BLOOD CELLS” value [2] was 0 /100WBC and the “PLATELET COUNT” value [2] was 1299.33 x10E3/uL. The “ALANINE AMINOTRANSFERASE” value [2] was 51.33 u/L, the ALBUMIN [2] was 4.47 G/DL and the “ALKALINE PHOSPHATASE” value [2] was 337.33 u/L. The “ASPARTATE AMINOTRANSFERASE” value [2] was 87.33 u/L, the “BLOOD UREA NITROGEN” value [2] was 15.67 mg/dL and the “CARBON DIOXIDE” value [2] was 25 mmol/L. For the same compound, the CHLORIDE [2] was 103.67 MEQ/L, the CHOLESTEROL [2] was 64 mg/dL and the “CREATINE PHOSPHOKINASE” value [2] was 252 u/L. The CREATININE [2] was 0.19 mg/dL, the GLUCOSE [2] was 168.33 mg/dL and the “LACTATE DEHYDROGENASE” value [2] was 300.67 u/L. It also gave an LIPASE [2] of 8.67 u/L, a PHOSPHORUS [2] of 12.53 mg/dL and a POTASSIUM [2] of 6.55 MEQ/L. The SODIUM [2] was 145.77 MEQ/L, the “TOTAL BILIRUBIN” value [2] was 0.13 mg/dL and the “TOTAL PROTEIN” value [2] was 6.1 G/DL. The “URIC ACID” value [2] was 1.9 mg/dL, the “ABSOLUTE BASOPHIL” value [3] was 0 CELLS/uL and the “ABSOLUTE EOSINOPHIL” value [3] was 430 CELLS/uL. The “ABSOLUTE LYMPHOCYTE” value [3] was 12770 CELLS/uL, the “ABSOLUTE MONOCYTE” value [3] was 0 CELLS/uL and the “ABSOLUTE SEGMENTED NEUTROPHIL” value [3] was 3000 CELLS/uL. For the same compound, the BASOPHIL [3] was 0%, the EOSINOPHIL [3] was 2.67% and the “ERYTHROCYTE COUNT” value [3] was 5.53 x10E6/uL. For the same compound, the HEMATOCRIT [3] was 35%, the HEMOGLOBIN [3] was 13.4 G/DL and the “LEUKOCYTE COUNT” value [3] was 16.2 x10E3/uL. For the same compound, the LYMPHOCYTE [3] was 79.33%, the “MEAN CORPUSCULAR HEMOGLOBIN” value [3] was 24.3 pg and the “MEAN CORPUSCULAR HEMOGLOBIN CONCENTRATION” value [3] was 38.3 G/DL. For the same compound, the “MEAN CORPUSCULAR VOLUME” value [3] was 63.37 fL, the MONOCYTE [3] was 0% and the NEUTROPHIL [3] was 18%. For the same compound, the “NUCLEATED RED BLOOD CELLS” value [3] was 0 /100WBC, the “PLATELET COUNT” value [3] was 1325.33 x10E3/uL and the “ALANINE AMINOTRANSFERASE” value [3] was 51.33 u/L. For the same compound, the ALBUMIN [3] was 4.17 G/DL, the “ALKALINE PHOSPHATASE” value [3] was 418.33 u/L and the “ASPARTATE AMINOTRANSFERASE” value [3] was 78.33 u/L. For the same compound, the “BLOOD UREA NITROGEN” value [3] was 15.33 mg/dL, the “CARBON DIOXIDE” value [3] was 27.33 mmol/L and the CHLORIDE [3] was 101 MEQ/L. The CHOLESTEROL [3] was 60.33 mg/dL, the “CREATINE PHOSPHOKINASE” value [3] was 226.67 u/L and the CREATININE [3] was 0.19 mg/dL. The GLUCOSE [3] was 167 mg/dL, the “LACTATE DEHYDROGENASE” value [3] was 154.67 u/L and the LIPASE [3] was 8.67 u/L. The PHOSPHORUS [3] was 13.27 mg/dL, the POTASSIUM [3] was 6.4 MEQ/L and the SODIUM [3] was 145.67 MEQ/L. The “TOTAL BILIRUBIN” value [3] was 0.1 mg/dL, the “TOTAL PROTEIN” value [3] was 5.83 G/DL and the “URIC ACID” value [3] was 1.47 mg/dL. For the same compound, the “ABSOLUTE BASOPHIL” value [4] was 0 CELLS/uL, the “ABSOLUTE EOSINOPHIL” value [4] was 318.67 CELLS/uL and the “ABSOLUTE LYMPHOCYTE” value [4] was 13433.33 CELLS/uL. For the same compound, the “ABSOLUTE MONOCYTE” value [4] was 0 CELLS/uL, the “ABSOLUTE SEGMENTED NEUTROPHIL” value [4] was 2014.67 CELLS/uL and the BASOPHIL [4] was 0%. For the same compound, the EOSINOPHIL [4] was 2%, the “ERYTHROCYTE COUNT” value [4] was 5.83 x10E6/uL and the HEMATOCRIT [4] was 36%. For the same compound, the HEMOGLOBIN [4] was 13.47 G/DL, the “LEUKOCYTE COUNT” value [4] was 15.77 x10E3/uL and the LYMPHOCYTE [4] was 84.67%. For the same compound, the “MEAN CORPUSCULAR HEMOGLOBIN” value [4] was 23.1 pg, the “MEAN CORPUSCULAR HEMOGLOBIN CONCENTRATION” value [4] was 37.47 G/DL and the “MEAN CORPUSCULAR VOLUME” value [4] was 61.7 fL. The MONOCYTE [4] was 0%, the NEUTROPHIL [4] was 13.33% and the “NUCLEATED RED BLOOD CELLS” value [4] was 0 /100WBC. For the same compound, the “PLATELET COUNT” value [4] was 1271.67 x10E3/uL, the “ALANINE AMINOTRANSFERASE” value [4] was 65.33 u/L and the ALBUMIN [4] was 4.43 G/DL. The “ALKALINE PHOSPHATASE” value [4] was 391.33 u/L, the “ASPARTATE AMINOTRANSFERASE” value [4] was 82.33 u/L and the “BLOOD UREA NITROGEN” value [4] was 16.33 mg/dL. The “CARBON DIOXIDE” value [4] was 27.33 mmol/L, the CHLORIDE [4] was 102.67 MEQ/L and the CHOLESTEROL [4] was 68.67 mg/dL. For the same compound, the “CREATINE PHOSPHOKINASE” value [4] was 204.33 u/L, the CREATININE [4] was 0.15 mg/dL and the GLUCOSE [4] was 177 mg/dL. The “LACTATE DEHYDROGENASE” value [4] was 87 u/L, the LIPASE [4] was 9 u/L and the PHOSPHORUS [4] was 12.33 mg/dL. The POTASSIUM [4] was 6.56 MEQ/L, the SODIUM [4] was 147.4 MEQ/L and the “TOTAL BILIRUBIN” value [4] was 0.13 mg/dL. For the same compound, the “TOTAL PROTEIN” value [4] was 6.03 G/DL and the “URIC ACID” value [4] was 1.9 mg/dL.
